Source: publication PMC10761933, “Acquired and intrinsic resistance to vemurafenib in BRAF^V600E ‐driven melanoma brain metastases” (FEBS Open Bio, 2023)
Where two headings read alike, the source gives them in different places.

Experiments:
[1] = Vemurafenib distribution in plasma, brain regions and tumor of A375 tumor‐bearing mice (LC–MS/MS); format: in vivo; settings: for discrepancy in plasma concentration vs the previous pharmacokinetic experiment: 4 h after third daily administration
Experimental: To study its distribution in tumor‐bearing mice, vemurafenib was administered p.o. to tumor‐bearing mice for 3 days at a dose of 10 or 25 mg·kg^−1 q.d., starting 14 days after intracranial tumor cell injection. One group of mice received 10 mg·kg^−1 vemurafenib 4 h after administration of 100 mg·kg^−1 elacridar. Four hours after the third administration, blood was collected by heart puncture, and whole brains were dissected and divided into four parts: ipsilateral hemisphere (tissue from the tumor‐bearing hemisphere that was free of macroscopic tumor tissue), contralateral hemisphere (the tumor‐free hemisphere), cerebellum and macroscopic tumor. In a follow‐up experiment, tissues and plasma were collected 4 h after 5 and 10 consecutive daily p.o. administrations of vemurafenib. All tissues were weighed and subsequently homogenized using a FastPrep®‐24 (MP‐Bio‐medicals, Irvine, CA, USA) in 3 mL 1% (w/v) bovine serum albumin. All tissue samples were prepared for LC–MS/MS analysis as described above for plasma samples.
(§1) The LC–MS/MS system consisted of an API 3000 mass spectrometer (Sciex, Framingham, MA, USA) coupled to an UltiMate 3000 LC System (Dionex, Sunnyvale, CA, USA). Samples were separated using a ZORBAX Extend‐C18 column (Agilent, Santa Clara, CA, USA), preceded by a Securityguard C18 precolumn (Phenomenex, Utrecht, the Netherlands). Elution was done using a mixture of mobile phase A (0.1% formic acid in water (v/v)) and mobile phase B (methanol) in a 5 min gradient from 20% to 95% B, followed by 95% B that was maintained for 3 min and then re‐equilibrated at 20% B. Multiple reaction monitoring parameters were 490.2/383.1 (vemurafenib) and 496.2/389.1 (vemurafenib‐^13C6). System control and data analysis were done using ANALYST ® 1.6.2 software (AB Sciex, Foster City, CA, USA).

[2] = Oral vemurafenib plasma pharmacokinetics in tumor‐free WT and Abcb1a/b;Abcg2−/− FVB nude mice; format: in vivo; settings: mean ± SD; for Cmax / Tmax / half-life: FVB nude, mouse, plasma, po; for half-life: read-out: t 1/2 (elimination half‐life) (converted)
Experimental: To establish vemurafenib plasma kinetics, tumor‐free FVB WT, and Abcb1a/b;Abcg2 ^ −/− nude mice received vemurafenib orally (p.o.) by gavage at indicated doses. Elacridar (100 mg·kg^−1) was administrated p.o. by gavage 4 h before vemurafenib. Blood was sampled from the tail vein at 15 min, 1, 2, 4, 8, and 24 h after the administration. The plasma was obtained by centrifugation (5 min, 2000 g, 4 °C). Vemurafenib was extracted from plasma by diethyl ether liquid–liquid extraction. Extracts were dried using a Savant SpeedVac Concentrator (Thermo Fisher Scientific, Waltham, MA, USA), reconstituted in MeCN : water (30 : 70), and subjected to liquid chromatography/tandem mass spectrometry (LC/MS–MS) analysis. Vemurafenib‐^13C6 was used as an internal standard.
as §1
Pharmacokinetic parameters were calculated with PKSOLVER [30]. All comparisons involving more than two groups were analyzed by one‐way ANOVA followed by Bonferroni post hoc tests. Differences in fractions of ABC transporter‐expressing cells between brain and skin lesions were compared using the Binomial test in which the skin fraction was considered as expected and the brain fraction was considered as observed. Correlations were determined using simple linear regression. Kaplan–Meier curves were drawn using GRAPHPAD PRISM v7 (GraphPad Software, La Jolla, CA, USA), and statistically significant survival differences were determined using the log‐rank test. Statistical significance was accepted in all tests when P < 0.05.

[3] = Abcb1a/b;Abcg2−/− mice, 10 mg·kg^−1 p.o.
[4] = Abcb1a/b;Abcg2−/− mice, 25 mg·kg^−1 p.o.
[5] = 10 mg/kg, Abcb1a/b;Abcg2−/− mice, 10 mg·kg^−1 p.o.
[6] = 10 mg/kg, WT mice, 10 mg·kg^−1 p.o. + elacridar 100 mg·kg^−1 p.o. 4 h before
[7] = 25 mg/kg, Abcb1a/b;Abcg2−/− mice, 25 mg·kg^−1 p.o.
[8] = 25 mg/kg, WT mice, 25 mg·kg^−1 p.o.
[9] = WT mice, 10 mg·kg^−1 p.o. + elacridar 100 mg·kg^−1 p.o. 4 h before

CCCS(=O)(=O)Nc1ccc(F)c(C(=O)c2c[nH]c3ncc(-c4ccc(Cl)cc4)cc23)c1F [vemurafenib]
levels in tumor core of WT mice relative to Abcb1a/b;Abcg2−/− mice ([1]; 4 h after third daily oral administration): approximately half | concentration in tumor regions, 10 days vs 5 days of treatment ([1]; Abcb1a/b;Abcg2−/− mice and WT mice also receiving elacridar): even higher at the later time point | Kp at 4 h ([1]; FVB nude, mouse, oral, 25 mg·kg^−1, WT mice, stated as very close to the total blood volume of the murine brain, read-out: tissue–plasma ratios in normal brain regions): ~0.02 | penetration in normal brain regions ([1]; WT mice, 4 h after third daily oral administration): negligible | discrepancy in plasma concentration vs the previous pharmacokinetic experiment ([1]; tumor‐bearing Abcb1a/b;Abcg2−/− mice): twofold | discrepancy in plasma concentration vs the previous pharmacokinetic experiment ([1]; tumor‐bearing WT mice that also received elacridar): no difference | plasma concentration, long‐term (10 days) vs short‐term (5 days) treated ([1]; tumor‐bearing WT mice, 25 mg·kg^−1): considerably lower | plasma concentration relative to the previous pharmacokinetic experiment (single dose, tumor‐free) ([1]; tumor‐bearing WT mice, 25 mg·kg^−1, 4 h after third daily administration): around one‐fourth | AUCplasma 0–4 h [2, 3]: 56 ± 7.2 µg·mL/h | AUCplasma 0–24 h [2, 3]: 230 ± 35 µg·mL/h | AUCplasma 0–∞ [2, 3]: 250 ± 49 µg·mL/h | CL/F (apparent clearance after oral administration) [2, 3]: 0.04 ± 0.006 L·kg/h | AUCplasma 0–4 h [2, 4]: 140 ± 16 µg·mL/h | AUCplasma 0–24 h [2, 4]: 530 ± 68 µg·mL/h | AUCplasma 0–∞ [2, 4]: 610 ± 84 µg·mL/h | CL/F (apparent clearance after oral administration) [2, 4]: 0.04 ± 0.006 L·kg/h | Cmax [2, 5]: 17000 ± 1700 ng/mL | Tmax [2, 5]: 2.8 ± 1.1 h | half-life [2, 5]: 6.7 ± 1.4 h | Tmax [2, 6]: 3.6 ± 0.9 h | half-life [2, 6]: 5.8 ± 0.6 h | Cmax [2, 6]: 12000 ± 1700 ng/mL | Cmax [2, 7]: 41000 ± 4500 ng/mL | Tmax [2, 7]: 1.9 ± 0.9 h | half-life [2, 7]: 8.5 ± 1.2 h | Cmax [2, 8]: 42000 ± 7700 ng/mL | Tmax [2, 8]: 2.6 ± 1.3 h | half-life [2, 8]: 2.1 ± 0.2 h | AUCplasma 0–4 h [2, 9]: 38 ± 5.7 µg·mL/h | AUCplasma 0–24 h [2, 9]: 180 ± 24 µg·mL/h | AUCplasma 0–∞ [2, 9]: 190 ± 23 µg·mL/h | CL/F (apparent clearance after oral administration) [2, 9]: 0.05 ± 0.006 L·kg/h | AUCplasma 0–4 h ([2]; WT mice, 25 mg·kg^−1 p.o.): 147 ± 28 µg·mL/h | AUCplasma 0–24 h ([2]; WT mice, 25 mg·kg^−1 p.o.): 390 ± 98 µg·mL/h | AUCplasma 0–∞ ([2]; WT mice, 25 mg·kg^−1 p.o.): 390 ± 99 µg·mL/h | CL/F (apparent clearance after oral administration) ([2]; WT mice, 25 mg·kg^−1 p.o.): 0.07 ± 0.017 L·kg/h
